Values after ≈ are worked out from the molar mass of the structure shown. Like-named read-outs stand apart in the source and are kept apart here.
Assays:
C. trachomatis = assay: MIC values, C. trachomatis (Table 2); type: cell-based
E. coli = assay: MIC values, E. coli (Tables 1-4); type: cell-based
S. aureus [1] = assay: MIC values, S. aureus (Tables 1-4); type: cell-based
H. flu = type: cell-based
E. faecalis = assay: MIC values, E. faecalis (Tables 1-4); type: cell-based; details: for MIC F. faecalis: Table 2
S. pneumo. = assay: MIC values, S. pneumo. (Tables 1-4); type: cell-based
S. aureus [2] = assay: minimal bactericidal concentration in the stationary growth phase (MBCstat); type: cell-based; details: Staphylococcus aureus, 1% glucose PBS pH 7.4 with 4% Muller Hinton Broth
Description: (§1) FIG. 2A is a schematic illustration showing the peak drug concentration of Compound 86 (1.13 μg/ml) in cage fluid from non-infected animals after single dose of 12.5 mg/kg. […] In this medium, bacterial counts remained stable in the absence of antibacterial agents for >36 hours.
(§2) In this medium, bacterial counts remained stable in the absence of antibacterial agents for >36 hours.
The minimal bactericidal concentration in the stationary growth phase (MBCstat) was determined by using overnight bacterial cultures which were centrifuged and resuspended in medium containing 1% glucose supplemented phosphate buffered saline (PBS) pH 7.4 with 4% Muller Hinton Broth (Zimmerli et al., J Antimicrob. Chemother. 33:959-967 (1994)). In this medium, bacterial counts remained stable in the absence of antibacterial agents for >36 hours.

S. aureus ATCC29213 [3] = assay: minimal bactericidal concentration for logarithmic phase growth (MBClog); type: cell-based
Description: as §1, §2
(§3) To understand the relative efficacy of peak drug concentration, it is compared to the minimal inhibitory concentration (MIC), the minimal bactericidal concentration for logarithmic phase growth (MBClog) and the MBCstat. […] The MBClog was defined as antimicrobial concentration that reduced the original inoculum by […] after 24 hour incubation (i.e. 3 log 10 CFU/ml), as described in the Manual of Clinical Microbiology. The MBCstat was determined as described in Example 1.

in vivo = details: albino, guinea pig, ip
Description: (§4) For pharmacokinetic studies, non-infected animals were used. […] Teflon tissue cages were implanted into the flanks of guinea pigs. For pharmacokinetic studies, non-infected animals were used.

S. aureus [4] = assay: Foreign-body (tissue cage) infection model, antimicrobial treatment; type: in vivo, guinea pigs; details: for Mean log10 CFU/ml ± SD in aspirated cage fluid, during treatment / no. culture negative/total no., cage fluid during treatment: day 4; for Mean log10 CFU/ml ± SD in aspirated cage fluid, after treatment / no. culture negative/total no., cage fluid after treatment: day 9; for Cure rate of removed cages: cages removed day 9
Description: For pharmacokinetic studies, non-infected animals were used. […] Antibiotics were administered intraperitoneally every 12 hours for four days (total eight doses). […] The cure rate is the fraction of cages in which the infection was eradicated. […] Following incubation, 50 μl of the TSB mixture was plated on blood agar plates to determine the presence of bacteria. A foreign-body infection model in guinea pigs was used for in vivo analysis of antimicrobials as described in Example 2, however in this example the animals were infected. […] Antibiotics were administered intraperitoneally every 12 hours for four days (total eight doses).

[5] = guinea pig, in vivo, ip
Description: as §4

S. aureus ATCC29213 [6] = assay: MIC by broth dilution method; type: cell-based; details: S. aureus ATCC29213, inoculum 5×10^5 CFU/ml
Description: as §1, §2, §3

Compound | MIC C. trachomatis (C. trachomatis) | MIC E. coli (E. coli) | MIC S. aureus (S. aureus [1]) | MIC H. flu (H. flu) | MIC F. faecalis (E. faecalis) | MIC S. pneumo. (S. pneumo.) | MBC (S. aureus [2]) | also measured
CO[C@H]1/C=C/O[C@@]2(C)Oc3c(C)c(O)c4c(=O)c(c5oc6c7c(cc(O)c6nc-5c4c3C2=O)N(C)CCN7C)NC(=O)/C(C)=C\C=C\[C@H](C)[C@H](O)[C@@H](C)[C@@H](O)[C@@H](C)[C@H](O)[C@@H]1C [Compound 81] | 1 ng/mL (≈ 1.19 nM) | 8 µg/mL (≈ 9490 nM) | 0.5 µg/mL (≈ 593 nM) | 2 µg/mL (≈ 2370 nM) | 1 µg/mL (≈ 1190 nM) | 60 ng/mL (≈ 71.2 nM) |  | 
CO[C@H]1/C=C/O[C@@]2(C)Oc3c(C)c(O)c4c(=O)c(c5oc6c7c(cc(O)c6nc-5c4c3C2=O)N(C)CCN7C)NC(=O)/C(C)=C\C=C\[C@H](C)[C@H](O)[C@@H](C)[C@@H](O)[C@@H](C)[C@H](OC(C)=O)[C@@H]1C [Compound 80] | 0.064 ng/mL (≈ 0.0723 nM) | 8 µg/mL (≈ 9040 nM) | 0.008 µg/mL (≈ 9.04 nM) | 1 µg/mL (≈ 1130 nM) | 1 µg/mL (≈ 1130 nM) | 0.12 ng/mL (≈ 0.136 nM) |  | 
CO[C@H]1/C=C/O[C@@]2(C)Oc3c(C)c(O)c4c(=O)c(c5oc6cc(N7CC(N(C)C)C7)cc(O)c6nc-5c4c3C2=O)NC(=O)/C(C)=C\C=C\[C@H](C)[C@H](O)[C@@H](C)[C@@H](O)[C@@H](C)[C@H](OC(C)=O)[C@@H]1C [Compound 152] |  |  |  |  |  |  | 0.469 µg/mL (≈ 522 nM) | 
CO[C@H]1/C=C/O[C@@]2(C)Oc3c(C)c(O)c4c(O)c(c(/C=N/N5CCN(C)CC5)c(O)c4c3C2=O)NC(=O)/C(C)=C\C=C\[C@H](C)[C@H](O)[C@@H](C)[C@@H](O)[C@@H](C)[C@H](OC(C)=O)[C@@H]1C [Rifampin, rifampin, reference compound] |  |  |  |  |  |  | 3.6 µg/mL (≈ 4370 nM) | MBC (S. aureus ATCC29213 [3]; Staphylococcus aureus, ATCC29213, 24 hour incubation): 0.8 µg/mL (≈ 972 nM); AUC (in vivo; 12.5 mg/kg): 4560 ng·h/mL; Cmax (in vivo; 12.5 mg/kg): 980 ng/mL; Tmax (in vivo; 12.5 mg/kg): 2 h; concentration at 12 h (in vivo; 12.5 mg/kg): 140 ± 90 ng/mL; Mean log10 CFU/ml ± SD in aspirated cage fluid, during treatment (S. aureus [4]; 12.5 mg/kg/12 h i.p.): 3.68 ± 0.59 log10 CFU/ml; no. culture negative/total no., cage fluid during treatment (S. aureus [4]; 12.5 mg/kg/12 h i.p.): 11/24; Mean log10 CFU/ml ± SD in aspirated cage fluid, after treatment (S. aureus [4]; 12.5 mg/kg/12 h i.p.): 1.43 ± 0.28 log10 CFU/ml; no. culture negative/total no., cage fluid after treatment (S. aureus [4]; 12.5 mg/kg/12 h i.p.): 19/24; Tmax ([5]; 12.5 mg/kg): two; MIC (S. aureus ATCC29213 [6]; Staphylococcus aureus, read-out: minimal inhibitory concentration (MIC)): 0.016 µg/mL (≈ 19.4 nM)
CO[C@H]1/C=C/O[C@@]2(C)Oc3c(C)c(O)c4c(=O)c(c5oc6cc(N7CCN(C)CC7)cc(O)c6nc-5c4c3C2=O)NC(=O)/C(C)=C\C=C\[C@H](C)[C@H](O)[C@@H](C)[C@@H](O)[C@@H](C)[C@H](O)[C@@H]1C [Compound 86] |  | 4 µg/mL (≈ 4670 nM) | 0.002 µg/mL (≈ 2.33 nM) | 0.25 µg/mL (≈ 292 nM) |  | 0.12 ng/mL (≈ 0.14 nM) |  | MBClog (S. aureus ATCC29213 [3]; 24 hour incubation): 0.008 μg/ml; Cure rate of removed cages (S. aureus [4]; 3 mg/kg/12 h i.p.): 8% (1/12); Mean log10 CFU/ml ± SD in aspirated cage fluid, during treatment (S. aureus [4]; 3 mg/kg/12 h i.p.): 4.76 ± 0.51 log10 CFU/ml; no. culture negative/total no., cage fluid during treatment (S. aureus [4]; 3 mg/kg/12 h i.p.): 2/12; Mean log10 CFU/ml ± SD in aspirated cage fluid, after treatment (S. aureus [4]; 3 mg/kg/12 h i.p.): 2.77 ± 0.53 log10 CFU/ml; no. culture negative/total no., cage fluid after treatment (S. aureus [4]; 3 mg/kg/12 h i.p.): 4/12; Cure rate of removed cages (S. aureus [4]; 12.5 mg/kg/12 h i.p.): 58%; Cure rate of removed cages (S. aureus [4]; 12.5 mg/kg/12 h i.p., listed as Cpd 86): 58% (7/12); Mean log10 CFU/ml ± SD in aspirated cage fluid, during treatment (S. aureus [4]; 12.5 mg/kg/12 h i.p.): 3.24 ± 0.27 log10 CFU/ml; no. culture negative/total no., cage fluid during treatment (S. aureus [4]; 12.5 mg/kg/12 h i.p.): 5/12; Mean log10 CFU/ml ± SD in aspirated cage fluid, after treatment (S. aureus [4]; 12.5 mg/kg/12 h i.p.): 1.57 ± 0.53 log10 CFU/ml; no. culture negative/total no., cage fluid after treatment (S. aureus [4]; 12.5 mg/kg/12 h i.p.): 10/12; Cmin ([5]; 3 mg/kg): 0.04 ± 0.01 µg/mL; Cmax (peak drug concentration) ([5]; 12.5 mg/kg): 1.13 µg/mL; Cmin ([5]; 12.5 mg/kg): 0.14 ± 0.11 µg/mL; Tmax ([5]; 12.5 mg/kg): 8 h; MIC E. faecalis (E. faecalis): 0.015 µg/mL (≈ 17.5 nM); minimal inhibitory concentration (MIC) (S. aureus ATCC29213 [6]): 2 ng/mL (≈ 2.33 nM)
CO[C@H]1/C=C/O[C@@]2(C)Oc3c(C)c(O)c4c(=O)c(c5oc6c7c(cc(O)c6nc-5c4c3C2=O)N(C)CCCN7C)NC(=O)/C(C)=C\C=C\[C@H](C)[C@H](O)[C@@H](C)[C@@H](O)[C@@H](C)[C@H](OC(C)=O)[C@@H]1C [Compound 82] | 0.064 ng/mL (≈ 0.0712 nM) | >8 µg/mL | 0.06 µg/mL (≈ 66.7 nM) | 2 µg/mL (≈ 2220 nM) | 4 µg/mL (≈ 4450 nM) | 8 ng/mL (≈ 8.9 nM) |  | 
C[C@H]1COc2c(N3CCN(C)CC3)c(F)cc3c(=O)c(C(=O)O)cn1c23 [Levofloxacin, levofloxacin] |  |  |  |  |  |  | 40 µg/mL (≈ 111000 nM) | Tmax (in vivo; 5 mg/kg): 2 h; concentration at 12 h (in vivo; 5 mg/kg): 10 ± 10 ng/mL
CO[C@H]1/C=C/O[C@@]2(C)Oc3c(C)c(O)c4c(=O)c(c5oc6c7c(cc(O)c6nc-5c4c3C2=O)N(C(C)C)CCN7C(C)C)NC(=O)/C(C)=C\C=C\[C@H](C)[C@H](O)[C@@H](C)[C@@H](O)[C@@H](C)[C@H](OC(C)=O)[C@@H]1C [Compound 84] | 10 ng/mL (≈ 10.6 nM) | >8 µg/mL | 0.06 µg/mL (≈ 63.8 nM) | 2 µg/mL (≈ 2130 nM) | 4 µg/mL (≈ 4250 nM) | 8 ng/mL (≈ 8.5 nM) |  | 
